From patent publication US11211249B2, “Herbal extracts and flavor systems for oral products and methods of making the same” (Sensient Flavors LLC, priority 2008, dated 2021)

Experiment: Flavor release from chewing gum, mechanical mastication device with artificial saliva
Assay type: physicochemical
Details: chewing gum with 2% flavor system
Experimental: To test if adequate flavor is released from chewing gum, the chewing gums made in Example 5 were tested using a mechanical instrument to simulate human mastication of chewing gum, which can be found in Kleber et al. A mastication device designed for the evaluation of chewing gum is set forth in Journal of Dental Research, 1981, 109-114, which is incorporated herein in its entirety. Artificial saliva (15 ml) was placed in the reservoir, and the thermostatically controlled heating element was turned on to maintain the saliva and gum at body temperature for proper chewing consistency. One stick of test chewing gum (approximately 3 grams with 2% flavor system added) was placed in the warmed chamber and the artificial saliva was exposed to the chewing gum for 1 minute under chewing simulation conditions. All the artificial saliva (15 ml) was removed as quickly as possible with a pipette, delivered immediately into a glass bottle and sealed. The saliva was replaced with a fresh 15 ml aliquot, the chewing conditions restarted and the gum samples were treated for another minute. […] Two markers, Marker 1, thymol, and Marker 2, menthol, were selected to monitor flavor release based on quantity and antimicrobial efficiency. […] It was estimated that enough flavor was released during the first 15-20 minutes to have antimicrobial activity based on the quantity released and the MIC results.

Cc1ccc(C(C)C)c(O)c1 [Marker 1, thymol]
release course over time of chewing: released constantly for the first 10 minutes and afterward decreases
